From paper PMC5786306, “An AKAP-Lbc-RhoA interaction inhibitor promotes the translocation of aquaporin-2 to the plasma membrane of renal collecting duct principal cells” (PLoS ONE, 2018)

Key:
[1] = tested on: AQP2 insertion into the plasma membrane of IMCD cells; assay: Biotinylation of cell surface proteins; assay type: cell-based, rat; conditions: Scaff10-8 30 μM, 1 or 24 h, forskolin 30 μM, 30 min
Procedure: The assay was performed according to Bogum et al.. IMCD cells were treated with Scaff10-8 at a concentration of 30 μM for 1 or 24 h (0.3% DMSO final concentration). DMSO (0.3%) was used as a control for the 24 h of incubation. Cells were stimulated with forskolin (30 min, 30 μM). Cells were washed twice with ice-cold PBS and incubated with biotinylation buffer (500 μg Biotin per well; 10 mM triethanolamine; 150 mM NaCl; 1 mM MgCl2; 0.1 mM CaCl2; pH 8.0) for 60 min at 4°C. After two washing steps with biotinylation buffer, cells were incubated for 10 min with quenching buffer (50 mM NH4Cl in PBS) at 4°C. Lysates were prepared using biotinylation lysis buffer 1 (SLB; 0.5% Triton X-100; 0.2% BSA; Complete mini EDTA-free). Lysates were sonicated and incubated for 20 min at 37°C. Cell debris was removed by centrifugation (30 min, 15,000x g, 4°C). Lysates were incubated with 80 μl streptavidin agarose beads at 4°C overnight. Beads were washed three times with biotinylation lysis buffer 1 and 2 (SLB; 0.5% Triton X-100; Complete mini EDTA-free). Proteins were eluted using sample buffer and analyzed by Western blotting.
(A) IMCD cells were treated with either compound (30 μM) or DMSO for 1 or 24 h. Membrane proteins were biotinylated followed by precipitation with streptavidin agarose beads. […] (B) Signals from A were quantified by densitometric analysis. […]

[2] = tested on: AQP2 localization and F-actin in primary IMCD cells; assay: Immunofluorescence microscopy of AQP2 and F-actin in primary IMCD cells; assay type: cell-based, rat
Text: Primary rat renal inner medullary collecting duct (IMCD) cells were obtained and cultured as previously described. AQP2 was detected with specific rabbit (H27 antibody) and secondary Cy3-coupled antibodies, and F-actin was visualized with Alexa Fluor 647-Phalloidin by laser scanning microscopy (LSM780; Zeiss Jena, Germany) as described.
Fig 8 Scaff10-8 promotes the redistribution of AQP2 to the plasma membrane of primary IMCD cells, which is independent of cAMP elevation and associated with depolymerization of F-actin. (A) Upper panel. IMCD cells were treated with DMSO (1%; control), the solvent of Scaff10-8, or forskolin (10 μM, 30 min) to stimulate cAMP synthesis. Lower panels: The cells were treated for 1 hour with Scaff10-8 (30 μM) alone (control) or with Scaff10-8 and forskolin. Forskolin (10 μM) was added for the final 30 min of Scaff10-8 incubation. AQP2 (green) was detected with specific primary and Cy3-coupled secondary antibodies, F-actin (red) with Alexa Fluor 647-Phalloidin and nuclei with DAPI (blue). Signals were visualized using a laser scanning microscope. Representative images are shown. n = 3. The magnified views were derived from the indicated boxes. (B) The signal intensities arising from intracellular and plasma membrane AQP2 were recorded, related to nuclear signal intensities, and the ratios of plasma membrane to intracellular fluorescence signal intensities were calculated (n = 30 cells per condition). Ratios > 1 indicate a predominant localization of AQP2 at the plasma membrane. Statistically significant differences were calculated using one-way ANOVA with posthoc Bonferroni. Mean ± SEM; *, p ≤ 0.05; *** p ≤ 0.001.

[3] = tested on: hypercholesterolemic patients; design: method as in PMID 26575415, PMID 21858457; conditions: cited from earlier work
untagged RhoA = target: T1, untagged RhoA (human, UniProt P61586 1-193); assay: MST; GFP-AKAP-Lbc/DHPH constant at 150 nM, unlabeled RhoA titrated 36.01 nM-590 uM in MST buffer; 1 h at room temperature; Monolith NT.115; conditions: both partners purified
T1 construct: RhoA; also called unlabeled RhoA; source: recombinant, purified
T1 sequence (P61586 whole entry): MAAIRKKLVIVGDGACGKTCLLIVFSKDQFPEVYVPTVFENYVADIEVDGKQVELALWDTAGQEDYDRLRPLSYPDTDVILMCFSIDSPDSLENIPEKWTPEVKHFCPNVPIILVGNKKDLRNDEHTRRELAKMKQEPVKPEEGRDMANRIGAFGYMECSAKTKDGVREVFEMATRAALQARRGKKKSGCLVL

With `C=C[C@@]1(C)CC(=O)[C@]2(O)[C@@]3(C)[C@@H](O)CCC(C)(C)[C@@H]3[C@H](O)[C@H](OC(C)=O)[C@@]2(C)O1` [forskolin, reference compound] as the molecule, how does the “insertion of AQP2 into the plasma membrane” value [1] read?
The value was “induced the membrane insertion of AQP2”.

What about the F-actin ([2]; Scaff10-8 30 μM alone, forskolin alone) of the same molecule?
The F-actin was “caused depolymerization”.

And the “localization of AQP2” value ([2]; Scaff10-8 30 μM, 1 h, no forskolin, forskolin 10 μM, 30 min)?
The value was “induced its redistribution to the plasma membrane”.

Which “diuresis and urine osmolality” value [3] does the source give for `CCC(C)(C)C(=O)O[C@H]1C[C@@H](C)C=C2C=C[C@H](C)[C@H](CC[C@@H]3C[C@@H](O)CC(=O)O3)[C@H]21` [simvastatin] here?
Its value is “reduced diuresis and increased urine osmolality”.

B1: GFP-AKAP-Lbc/DHPH (domain or fragment)
chain: EAESWSRIIDSKFLKQQKKDVVKRQEVIYELMQTEFHHVRTLKIMSGVYSQGMMADLLFEQQMVEKLFPCLDELISIHSQFFQRILERKKESLVDKSEKNFLIKRIGDVLVNQFSGENAERLKKTYGKFCGQHNQSVNYFKDLYAKDKRFQAFVKKKMSSSVVRRLGIPECILLVTQRITKYPVLFQRILQCTKDNEVEQEDLAQSLSLVKDVIGAVDSKVASYEKKVRLNEIYTKTDSKSIMRMKSGQMFAKEDLKRKKLVRDGSVFLKNAAGRLKEVQAVLLTDILVFLQEKDQKYIFASLDQKSTVISLKKLIVREVAHEEKGLFLISMGMTDPEMVEVHASSKEERNSWIQIIQDTINTL
modifications: GFP and His6 tags left out. Limits are codons 1972-2335, from bp 5,914-7,005 of CCDS32320.1 (human CDS); the nucleotide changes only removed rare codons. The range encloses the annotated DH …
Which Kd (untagged RhoA) does the source give for B1 here?
Its Kd is 42 µM.
